Reference: patent publication US20250161283A1, “USE OF INDAZOLE COMPOUND FOR TREATING PSORIASIS” (WUHAN CREATERNA SCIENCE AND TECHNOLOGY CO., LTD., priority 2022, published 2025)

Test system: BALB/c mice
Experiment: IMQ (imiquimod) cream-induced psoriasis mouse model
Type: in vivo
Details: male BALB/c mice, 15 mg/kg intragastric, twice daily
Protocol: BALB/c mice, male, 8 weeks old, SPF grade, provided by Shanghai Lingchang Biotechnology Co., Ltd.
In the drawings: • Group 1 Vaseline-Topical Vehicle P.O indicates a normal control group (vehicle group). • Group 2 IMQ+Vehicle P.O indicates a model control group (vehicle group). • Group 3 IMQ+Dex-Topical indicates a positive control group (dexamethasone). • Group 4 IMQ+A 15 mg/kg P.O indicates a compound group (A, 15 mg/kg, intragastric administration). • Group 5 IMQ+B 15 mg/kg P.O indicates a compound group (B, 15 mg/kg, intragastric administration).
First, 50 mice were randomly divided into 5 groups based on body weight: compound group 1—normal control group (vehicle group); compound group 2—model control group (vehicle group); compound group 3—positive control group (dexamethasone); compound group 4 (compound A, 15 mg/kg, intragastrically administered); compound group 5 (compound B, 15 mg/kg, intragastrically administered). On day 0 of the experiment, the dorsal hair of mice in each group was shaved, removing approximately 2 cm*3 cm area of hair. From day 1 to day 7 of the experiment, except for the normal control group, each mouse received an application of 62.5 mg of 5% IMQ cream on the shaved dorsal area and 20.0 mg of 5% IMQ cream on both sides of the right ear. The normal control group received an application of Vaseline. From day 1 to day 8 of the experiment, two hours before IMQ cream stimulation, the above groups were treated with corresponding drugs. The mice were weighed and shaved prior to administration, which was recorded as day 0. The mice were administered drugs from day 1 to day 8, twice daily.
• 1.5.1. Body weight and rate of change: The body weight was recorded, and the rate of change in body weight was calculated. The results are shown in FIG. 1 (presented as Mean±SEM, where *P<0.05, **P<0.01, ***P<0.001, V.S. model control group, Two-way ANOVA, Bonferroni posttests, n=10). • 1.5.2. Right ear thickness measurement: The thickness of the right ear of animals in each group was measured and recorded using a micrometer. The results are shown in FIG. 2 (Note: data presented as Mean±SEM, where *P<0.05, **P<0.01, ***P<0.001, V.S. model control group, Two-way ANOVA, Bonferroni posttests, n=10; data presented as Mean±SEM, where #P<0.5, ##P<0.01, ###P<0.001, V.S. Group 4, Two-way ANOVA, Bonferroni posttests, n=10) • 1.5.3. Dorsal skin scoring: On days 1, 3, 5, and 7, a representative photograph was taken for each group, and clinical scoring of the dorsal skin was performed. The clinical scoring criteria are shown in Table 1, and the results are shown in FIG. 3 (data presented as Mean±SEM, where *P<0.05, **P<0.01, ***P<0.001, V.S. model control group, Two-way ANOVA, Bonferroni posttests, n=10; data presented as Mean±SEM, where #P<0.5, ##P<0.01, ###P<0.001, V.S. Group 4, Two-way ANOVA, Bonferroni posttests, n=10).
• 1.5.4. Spleen weight: On day 8, mice in each group were euthanized by CO2 inhalation, and the spleens were rapidly excised. Right ear and dorsal skin samples were also collected. One-third of the dorsal skin, spleen, and right ear tissues were fixed in 10% neutral formalin fixative for preparation of paraffin sections and HE staining. Another one-third of the dorsal skin was snap-frozen in liquid nitrogen for ELISA analysis. The remaining one-third of the dorsal skin was snap-frozen in liquid nitrogen and stored in a −80° C. freezer for future use. The results are shown in FIG. 4 (Note: data presented as Mean±SEM, where *P<0.05, **P<0.01, ***P<0.001, V.S. model control group, One-way ANOVA, Bonferroni posttests, n=10; data presented as Mean±SEM, where #P<0.5, ##P<0.01, ###P<0.001, V.S. Group 4, One-way ANOVA, Bonferroni posttests, n=10). • 1.5.5. Dorsal skin pathology scoring: Dorsal skin tissue samples were collected from mice and fixed in 10% neutral formalin fixative for 48 hours. The tissues were then degreased in 75% ethanol for 72 hours, with daily medium changes. […]

`COc1cc2nn([C@H]3CC[C@](C)(O)CC3)cc2cc1NC(=O)c1cccc(C)[n+]1[O-]` [Compound B, 2-((2-(trans-4-hydroxy-cis-4-methylcyclohexyl)-6-methoxy-2H-indazol-5-yl)carbamoyl)-6-methylpyridine 1-oxide] was tested, and the “disease symptoms in the keratin, epidermis, and dermis of the dorsal skin” value (HE staining of dorsal skin, compared to model control group) was “alleviation”, the “dorsal skin pathological scores” value (HE staining of dorsal skin, compared to model control group, FIG. 5) was “significant reduction” and the psoriasis symptoms (compared to model control group) was “significant reduction”. The “weight loss (body weight and rate of change)” value (day 1 to day 8, compared to model control group, FIG. 1) was “significantly inhibited”, the “increase in right ear thickness” value (day 1 to day 8, compared to model control group, FIG. 2) was “significantly inhibited” and the “PASI clinical scores (dorsal skin: erythema, crusting, skin thickness, score 0-4)” value (scored on days 1, 3, 5, 7, compared to model control group, FIG. 3) was “significant reduction”. The “increase in spleen weight (spleen enlargement)” value (spleen excised on day 8, compared to model control group, FIG. 4) was “significantly inhibited”.
